Like-named read-outs stand apart in the source and are kept apart here.
Assays:
5HT2A receptor [1] = molecular target: T1, 5HT2A receptor (Homo sapiens, UniProt P28223); assay: cell-based; set-up: expressed in transfected cells; host or cells: HEK293T cells, transient co-transfection; details: for Emax: HEK-293T
5HT2A receptor [2] = molecular target: T1, 5HT2A receptor; assay: biochemical; type: binding; set-up: expressed in transfected cells; crude membranes
5HT2A receptor [3] = molecular target: T1, 5HT2A receptor; assay: cell-based; set-up: expressed in transfected cells; host or cells: HEK293T cells, transient co-transfection; details: for Emax: HEK-293T; remark: listed apart in the source
[4] = 5HT2A β-Arr EC50 (nM), BRET1 beta-arrestin2 recruitment, HEK293T
[5] = read-out: 5HT2A β-Arr Emax (%), BRET1 beta-arrestin2 recruitment, HEK293T, normalized to 5-HT
[6] = 5HT2A Ki (nM), secondary binding assay, Cheng-Prusoff
[7] = 5HTA Gq EC50 (nM), BRET2 Gαq dissociation, HEK293T
[8] = read-out: 5HTA Gq Emax (%), BRET2 Gαq dissociation, HEK293T, normalized to 5-HT
[9] = 5HT2A β-Arr EC50 (nM), BRET1 beta-arrestin2 recruitment, HEK293T cells
[10] = BRET1 beta-arrestin2 recruitment, HEK293T cells, normalized to 5-HT, read-out: 5HT2A β-Arr Emax (%)
[11] = secondary radioligand binding, Ki from IC50 by Cheng-Prusoff, read-out: 5HT2A Ki
[12] = BRET2 Gαq dissociation, HEK293T cells, read-out: 5HT2A Gq EC50
[13] = BRET2 Gαq dissociation, HEK293T cells, normalized to 5-HT, read-out: 5HT2A Gq Emax (%)
[14] = BRET1 beta-arrestin2 recruitment, HEK293T cells, read-out: 5HT2A β-Arr EC50
[15] = BRET1 beta-arrestin2 recruitment, HEK293T, normalized to 5-HT, read-out: 5HT2A β-Arr Emax (%)
[16] = BRET2 Gαq dissociation, HEK293T, normalized to 5-HT, read-out: 5HTA Gq Emax (%)
[17] = 5HT2A Ki (nM), secondary radioligand binding, Ki from IC50 by Cheng-Prusoff
[18] = 5HT2A Gq EC50 (nM), BRET2 Gαq dissociation, HEK293T cells
[19] = BRET2 Gαq dissociation, HEK293T, read-out: 5HTA Gq EC50

T1 sequence (P28223 whole entry): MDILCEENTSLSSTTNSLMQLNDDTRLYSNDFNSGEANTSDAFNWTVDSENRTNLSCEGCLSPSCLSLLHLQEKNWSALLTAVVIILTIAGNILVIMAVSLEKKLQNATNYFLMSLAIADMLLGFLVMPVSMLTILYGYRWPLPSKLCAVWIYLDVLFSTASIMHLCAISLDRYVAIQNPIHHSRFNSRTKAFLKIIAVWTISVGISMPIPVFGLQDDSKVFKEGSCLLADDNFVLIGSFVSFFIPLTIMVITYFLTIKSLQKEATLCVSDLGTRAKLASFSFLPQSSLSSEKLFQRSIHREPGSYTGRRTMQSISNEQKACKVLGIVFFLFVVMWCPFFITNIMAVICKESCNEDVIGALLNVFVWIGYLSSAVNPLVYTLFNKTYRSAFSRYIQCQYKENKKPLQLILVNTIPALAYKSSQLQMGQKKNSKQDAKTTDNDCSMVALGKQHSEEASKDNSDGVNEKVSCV

In the case of `CCCN1CCC=C(c2c[nH]c3c(Cl)cc(F)cc23)C1` [Example 159], the EC50 (5HT2A receptor [1]; [4]) is reported as 66.9 nM, the Emax (5HT2A receptor [1]; [5]) is reported as 39.7% and the Ki (5HT2A receptor [2]; [6]) is reported as 126 nM. For the same compound, the EC50 (5HT2A receptor [3]; [7]) was 17.5 nM and the Emax (5HT2A receptor [3]; [8]) was 90.3%.
`Clc1cccc2c(C3=CCCCNC3)n[nH]c12` [Example 208, 7-chloro-3-(2,5,6,7-tetrahydro-1H-azepin-3-yl)-1H-indazole] was tested, and the EC50 (5HT2A receptor [1]; [4]) was 1900 nM, the Emax (5HT2A receptor [1]; [5]) was 48.9% and the Ki (5HT2A receptor [2]; [6]) was greater than 10000 nM. It also gave an EC50 (5HT2A receptor [3]; [7]) of 849 nM and an Emax (5HT2A receptor [3]; [8]) of 95.7%.
`CCc1cccc2c(C3=CCCN(C)C3)c[nH]c12` [Example 52, 7-ethyl-3-(1-methyl-1,2,5,6-tetrahydropyridin-3-yl)-1H-indole] was tested, and the EC50 (5HT2A receptor [1]; [9]) was 880 nM, the Emax (5HT2A receptor [1]; [10]) was 73.4% and the Ki (5HT2A receptor [2]; [11]) was 42 nM. The EC50 (5HT2A receptor [3]; [12]) was 25 nM and the Emax (5HT2A receptor [3]; [13]) was 89.3%.
In the case of `Cc1cccc2[nH]cc(C3=CCCNC3)c12` [Example 17, 4-methyl-3-(1,2,5,6-tetrahydropyridin-3-yl)-1H-indole], the EC50 (5HT2A receptor [1]; [14]) is reported as 147 nM, the Emax (5HT2A receptor [1]; [10]) is reported as 42% and the Ki (5HT2A receptor [2]; [11]) is reported as 11.5 nM. For the same compound, the EC50 (5HT2A receptor [3]; [12]) was 22 nM and the Emax (5HT2A receptor [3]; [13]) was 85.7%.
`Cc1cccc2c(C34CNCC3C4)n[nH]c12` (stereo not drawn) [Example 186, 3-(3-azabicyclo[3.1.0]hexan-1-yl)-7-methyl-1H-indazole] showed an EC50 (5HT2A receptor [1]; [4]) of 481 nM, an Emax (5HT2A receptor [1]; [15]) of 46.9% and a Ki (5HT2A receptor [2]; [6]) of 748 nM. The EC50 (5HT2A receptor [3]; [7]) was 231 nM and the Emax (5HT2A receptor [3]; [16]) was 98.8%.
In the case of `OCCN1CCC=C(c2n[nH]c3c(Cl)cccc23)C1` [Example 168, 2-(5-(7-chloro-1H-indazol-3-yl)-3,6-dihydropyridin-1(2H)-yl)ethan-1-ol], the EC50 (5HT2A receptor [1]; [4]) is reported as 1050 nM, the Emax (5HT2A receptor [1]; [15]) is reported as 41.6% and the Ki (5HT2A receptor [2]; [6]) is reported as 8640 nM. It also gave an EC50 (5HT2A receptor [3]; [7]) of 183 nM and an Emax (5HT2A receptor [3]; [16]) of 68.2%.
With `Fc1cnc2[nH]cc(C3=CCCNC3)c2c1` [Example 120, 5-fluoro-3-(1,2,5,6-tetrahydropyridin-3-yl)-1H-pyrrolo[2,3-b]pyridine] the EC50 (5HT2A receptor [1]; [9]) was 67.4 nM, the Emax (5HT2A receptor [1]; [10]) was 60.4% and the Ki (5HT2A receptor [2]; [17]) was 53.6 nM. It also gave an EC50 (5HT2A receptor [3]; [18]) of 21.5 nM and an Emax (5HT2A receptor [3]; [13]) of 100%.
`Fc1ccc2c(C34CNCC3C4)c[nH]c2c1` (stereo not drawn) [Example 281, 3-(3-azabicyclo[3.1.0]hexan-1-yl)-6-fluoro-1H-indole] was tested, and the EC50 (5HT2A receptor [1]; [4]) was 369 nM, the Emax (5HT2A receptor [1]; [15]) was 27.9% and the Ki (5HT2A receptor [2]; secondary binding assay, Cheng-Prusoff, read-out: 5HT2A Ki) was 61.9 nM. It also gave an EC50 (5HT2A receptor [3]; [19]) of 52.1 nM and an Emax (5HT2A receptor [3]; [16]) of 66.3%.
`N#Cc1ccc2[nH]nc(C3=CCCNC3)c2c1` [Example 86, 3-(1,2,5,6-tetrahydropyridin-3-yl)-1H-indazole-5-carbonitrile] showed an EC50 (5HT2A receptor [1]; [9]) of 354 nM, an Emax (5HT2A receptor [1]; [10]) of 95.1% and a Ki (5HT2A receptor [2]; [17]) of 370 nM. The EC50 (5HT2A receptor [3]; [12]) was 15.9 nM and the Emax (5HT2A receptor [3]; [13]) was 90.2%.
With `Clc1ccnc2[nH]cc(C3=CCCNC3)c12` [Example 11, 4-chloro-3-(1,2,5,6-tetrahydropyridin-3-yl)-1H-pyrrolo[2,3-b]pyridine] the EC50 (5HT2A receptor [1]; [9]) was 904 nM, the Emax (5HT2A receptor [1]; [10]) was 43.7% and the Ki (5HT2A receptor [2]; [17]) was 273 nM. The EC50 (5HT2A receptor [3]; [18]) was 79.9 nM and the Emax (5HT2A receptor [3]; [13]) was 84.7%.
`Clc1cccc2c(C3=CCCNC3)n[nH]c12` [Example 89, 7-chloro-3-(1,2,5,6-tetrahydropyridin-3-yl)-1H-indazole] showed an EC50 (5HT2A receptor [1]; [14]) of 83.5 nM, an Emax (5HT2A receptor [1]; [10]) of 85.1% and a Ki (5HT2A receptor [2]; [11]) of 85.2 nM. It also gave an EC50 (5HT2A receptor [3]; [12]) of 11.4 nM and an Emax (5HT2A receptor [3]; [13]) of 93.7%.
Work on `CCCN1CCC=C(c2c[nH]c3c(CC)cccc23)C1` [Example 158, 7-ethyl-3-(1-propyl-1,2,5,6-tetrahydropyridin-3-yl)-1H-indole] yielded an EC50 (5HT2A receptor [1]; [4]) of 120 nM, an Emax (5HT2A receptor [1]; [15]) of 32.6% and a Ki (5HT2A receptor [2]; [6]) of 368 nM. It also gave an EC50 (5HT2A receptor [3]; [19]) of 78.4 nM and an Emax (5HT2A receptor [3]; [16]) of 82.2%.
In the case of `Cc1c(F)ccc2c(C3=CCCN(C)C3)c[nH]c12` [Example 127, 6-fluoro-7-methyl-3-(1-methyl-1,2,5,6-tetrahydropyridin-3-yl)-1H-indole], the EC50 (5HT2A receptor [1]; BRET1 beta-arrestin2 recruitment, HEK293T, read-out: 5HT2A β-Arr EC50) is reported as 62.9 nM, the Emax (5HT2A receptor [1]; [15]) is reported as 48.9% and the Ki (5HT2A receptor [2]; [6]) is reported as 121 nM. The EC50 (5HT2A receptor [3]; [19]) was 26.6 nM and the Emax (5HT2A receptor [3]; [16]) was 90.2%.
With `FC(F)(F)CN1CCC=C(c2n[nH]c3c(Cl)cccc23)C1` [Example 152, 7-chloro-3-(1-(2,2,2-trifluoroethyl)-1,2,5,6-tetrahydropyridin-3-yl)-1H-indazole] the EC50 (5HT2A receptor [1]; [4]) was 1050 nM, the Emax (5HT2A receptor [1]; [5]) was 66.5% and the Ki (5HT2A receptor [2]; [6]) was 389 nM. The EC50 (5HT2A receptor [3]; [7]) was 1570 nM and the Emax (5HT2A receptor [3]; [8]) was 89.8%.
`CN1CCC=C(c2c[nH]c3c(Cl)cc(F)cc23)C1` [Example 115, 7-chloro-5-fluoro-3-(1-methyl-1,2,5,6-tetrahydropyridin-3-yl)-1H-indole] gave an EC50 (5HT2A receptor [1]; [9]) of 576 nM, an Emax (5HT2A receptor [1]; [10]) of 59.7% and a Ki (5HT2A receptor [2]; [11]) of 20.8 nM. For the same compound, the EC50 (5HT2A receptor [3]; [12]) was 51.1 nM and the Emax (5HT2A receptor [3]; [13]) was 114%.

From US20260265246A1 (ICAHN SCHOOL OF MEDICINE AT MOUNT SINAI, priority 2021, published 2026)
